Test results published in patent EP0726263A2, “Herbicidal (1,3,4)oxadiazoles and thiadiazoles” (American Cyanamid Company, priority 1995, dated 1996).

Legend:
Format in all cases: in vivo
[1] = system: Alopecurus myosuroides; assay: Herbicidal activity, postemergence test; conditions: post; sprayed onto seedling plants, 800 g of active material per hectare; evaluated 2 weeks after treatment
In short: (§1)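 Spray dose 800 g a.i./ha in 900 L/ha; acetone stock with 0.4% Triton X-155, water-diluted. Pre: sown loam soil, read at 3 wk. Post: seedling plants, read at 2 wk. Visual 0-9 rating vs untreated.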

[2] = system: Ipomoea hederacea; assay: Herbicidal activity, postemergence test; conditions: post; sprayed onto seedling plants, 800 g of active material per hectare; evaluated 2 weeks after treatment
In short: as §1

[3] = system: Echinochloa crus-galli; assay: Herbicidal activity, postemergence test; conditions: post; sprayed onto seedling plants, 800 g of active material per hectare; evaluated 2 weeks after treatment
In short: as §1

[4] = system: Lamium purpureum; assay: Herbicidal activity, postemergence test; conditions: post; sprayed onto seedling plants, 800 g of active material per hectare; evaluated 2 weeks after treatment
In short: as §1

[5] = system: Glycine max; assay: Herbicidal activity, postemergence test; conditions: post; sprayed onto seedling plants, 800 g of active material per hectare; evaluated 2 weeks after treatment
In short: as §1

[6] = system: Helianthus annuus; assay: Herbicidal activity, postemergence test; conditions: post; sprayed onto seedling plants, 800 g of active material per hectare; evaluated 2 weeks after treatment
In short: as §1

[7] = system: Ambrosia artemisifolia; assay: Herbicidal activity, postemergence test; conditions: post; sprayed onto seedling plants, 800 g of active material per hectare; evaluated 2 weeks after treatment
In short: as §1

[8] = system: Triticum aestivum; assay: Herbicidal activity, postemergence test; conditions: post; sprayed onto seedling plants, 800 g of active material per hectare; evaluated 2 weeks after treatment
In short: as §1

[9] = system: Amaranthus retroflexus; assay: Herbicidal activity, postemergence test; conditions: post; sprayed onto seedling plants, 800 g of active material per hectare; evaluated 2 weeks after treatment
In short: as §1

[10] = system: Stellaria media; assay: Herbicidal activity, postemergence test; conditions: post; sprayed onto seedling plants, 800 g of active material per hectare; evaluated 2 weeks after treatment
In short: as §1

[11] = system: Zea mays; assay: Herbicidal activity, postemergence test; conditions: post; sprayed onto seedling plants, 800 g of active material per hectare; evaluated 2 weeks after treatment
In short: as §1

[12] = system: Gossypium hirsutum; assay: Herbicidal activity, postemergence test; conditions: post; sprayed onto seedling plants, 800 g of active material per hectare; evaluated 2 weeks after treatment
In short: as §1

[13] = system: Veronica persica; assay: Herbicidal activity, postemergence test; conditions: post; sprayed onto seedling plants, 800 g of active material per hectare; evaluated 2 weeks after treatment
In short: as §1

[14] = system: Abutilon theophrasti; assay: Herbicidal activity, postemergence test; conditions: post; sprayed onto seedling plants, 800 g of active material per hectare; evaluated 2 weeks after treatment
In short: as §1

[15] = system: Hordeum vulgare; assay: Herbicidal activity, postemergence test; conditions: post; sprayed onto seedling plants, 800 g of active material per hectare; evaluated 2 weeks after treatment
In short: as §1

[16] = system: Viola arvensis; assay: Herbicidal activity, postemergence test; conditions: post; sprayed onto seedling plants, 800 g of active material per hectare; evaluated 2 weeks after treatment
In short: as §1

[17] = system: Galium aparine; assay: Herbicidal activity, postemergence test; conditions: post; sprayed onto seedling plants, 800 g of active material per hectare; evaluated 2 weeks after treatment
In short: as §1

[18] = system: Setaria viridis; assay: Herbicidal activity, postemergence test; conditions: post; sprayed onto seedling plants, 800 g of active material per hectare; evaluated 2 weeks after treatment
In short: as §1

[19] = system: Alopecurus myosuroides; assay: Herbicidal activity, preemergence test; conditions: pre; sprayed onto soil, 800 g of active material per hectare; evaluated 3 weeks after treatment
In short: as §1

[20] = system: Ipomoea hederacea; assay: Herbicidal activity, preemergence test; conditions: pre; sprayed onto soil, 800 g of active material per hectare; evaluated 3 weeks after treatment
In short: as §1

[21] = system: Echinochloa crus-galli; assay: Herbicidal activity, preemergence test; conditions: pre; sprayed onto soil, 800 g of active material per hectare; evaluated 3 weeks after treatment
In short: as §1

[22] = system: Lamium purpureum; assay: Herbicidal activity, preemergence test; conditions: pre; sprayed onto soil, 800 g of active material per hectare; evaluated 3 weeks after treatment
In short: as §1

[23] = system: Glycine max; assay: Herbicidal activity, preemergence test; conditions: pre; sprayed onto soil, 800 g of active material per hectare; evaluated 3 weeks after treatment
In short: as §1

[24] = system: Helianthus annuus; assay: Herbicidal activity, preemergence test; conditions: pre; sprayed onto soil, 800 g of active material per hectare; evaluated 3 weeks after treatment
In short: as §1

[25] = system: Ambrosia artemisifolia; assay: Herbicidal activity, preemergence test; conditions: pre; sprayed onto soil, 800 g of active material per hectare; evaluated 3 weeks after treatment
In short: as §1

[26] = system: Triticum aestivum; assay: Herbicidal activity, preemergence test; conditions: pre; sprayed onto soil, 800 g of active material per hectare; evaluated 3 weeks after treatment
In short: as §1

[27] = system: Amaranthus retroflexus; assay: Herbicidal activity, preemergence test; conditions: pre; sprayed onto soil, 800 g of active material per hectare; evaluated 3 weeks after treatment
In short: as §1

[28] = system: Stellaria media; assay: Herbicidal activity, preemergence test; conditions: pre; sprayed onto soil, 800 g of active material per hectare; evaluated 3 weeks after treatment
In short: as §1

[29] = system: Zea mays; assay: Herbicidal activity, preemergence test; conditions: pre; sprayed onto soil, 800 g of active material per hectare; evaluated 3 weeks after treatment
In short: as §1

[30] = system: Gossypium hirsutum; assay: Herbicidal activity, preemergence test; conditions: pre; sprayed onto soil, 800 g of active material per hectare; evaluated 3 weeks after treatment
In short: as §1

[31] = system: Veronica persica; assay: Herbicidal activity, preemergence test; conditions: pre; sprayed onto soil, 800 g of active material per hectare; evaluated 3 weeks after treatment
In short: as §1

[32] = system: Abutilon theophrasti; assay: Herbicidal activity, preemergence test; conditions: pre; sprayed onto soil, 800 g of active material per hectare; evaluated 3 weeks after treatment
In short: as §1

[33] = system: Hordeum vulgare; assay: Herbicidal activity, preemergence test; conditions: pre; sprayed onto soil, 800 g of active material per hectare; evaluated 3 weeks after treatment
In short: as §1

[34] = system: Viola arvensis; assay: Herbicidal activity, preemergence test; conditions: pre; sprayed onto soil, 800 g of active material per hectare; evaluated 3 weeks after treatment
In short: as §1

[35] = system: Galium aparine; assay: Herbicidal activity, preemergence test; conditions: pre; sprayed onto soil, 800 g of active material per hectare; evaluated 3 weeks after treatment
In short: as §1

[36] = system: Setaria viridis; assay: Herbicidal activity, preemergence test; conditions: pre; sprayed onto soil, 800 g of active material per hectare; evaluated 3 weeks after treatment
In short: as §1

[37] = system: Papaver rhoeas; assay: Herbicidal activity, postemergence test; conditions: post; sprayed onto seedling plants, 800 g of active material per hectare; evaluated 2 weeks after treatment
In short: as §1

[38] = system: Matricaria inodora; assay: Herbicidal activity, postemergence test; conditions: post; sprayed onto seedling plants, 800 g of active material per hectare; evaluated 2 weeks after treatment
In short: as §1

[39] = system: Papaver rhoeas; assay: Herbicidal activity, preemergence test; conditions: pre; sprayed onto soil, 800 g of active material per hectare; evaluated 3 weeks after treatment
In short: as §1

[40] = system: Matricaria inodora; assay: Herbicidal activity, preemergence test; conditions: pre; sprayed onto soil, 800 g of active material per hectare; evaluated 3 weeks after treatment
In short: as §1

Row | SMILES | ALOMY control rating (0-9) [1] | IPOHE control rating (0-9) [2] | LAMPU control rating (0-9) [4] | GLXMA control rating (0-9) [5] | HELAN control rating (0-9) [6] | TRZAW control rating (0-9) [8] | ZEAMX control rating (0-9) [11] | GOSHI control rating (0-9) [12] | VERPE control rating (0-9) [13] | ABUTH control rating (0-9) [14] | HORVW control rating (0-9) [15] | VIOAR control rating (0-9) [16] | GALAP control rating (0-9) [17] | SETVI control rating (0-9) [18] | ALOMY control rating (0-9) [19] | IPOHE control rating (0-9) [20] | LAMPU control rating (0-9) [22] | GLXMA control rating (0-9) [23] | HELAN control rating (0-9) [24] | TRZAW control rating (0-9) [26] | other results
1 | C[C@H](NC(=O)c1nnc(C(C)(C)C)o1)c1ccccc1 [Example 2, (S)-5-tert-Butyl-[1,3,4]oxadiazole-2-carboxylic acid (1-phenylethyl)amide] | 0 (no effect) | 5 (definite injury) | 2 (slight effect) | 3 (moderate effect) | 4 (injury) | 3 (moderate effect) | 1 (trace effect) | 4 (injury) | 7 (good herbicidal effect) | 6 (herbicidal effect) | 1 (trace effect) | 5 (definite injury) | 4 (injury) | 4 (injury) | 2 (slight effect) | 0 (no effect) | 0 (no effect) | 0 (no effect) | 0 (no effect) | 0 (no effect) | ECHCG control rating (0-9) [3]: 3 (moderate effect); AMBEL control rating (0-9) [7]: 5 (definite injury); AMARE control rating (0-9) [9]: 6 (herbicidal effect); STEME control rating (0-9) [10]: 6 (herbicidal effect); ECHCG control rating (0-9) [21]: 0 (no effect); AMBEL control rating (0-9) [25]: 3 (moderate effect); AMARE control rating (0-9) [27]: 5 (definite injury); STEME control rating (0-9) [28]: 5 (definite injury); ZEAMX control rating (0-9) [29]: 0 (no effect); GOSHI control rating (0-9) [30]: 0 (no effect); VERPE control rating (0-9) [31]: 8 (approaching complete kill); ABUTH control rating (0-9) [32]: 4 (injury); HORVW control rating (0-9) [33]: 0 (no effect); VIOAR control rating (0-9) [34]: 5 (definite injury); GALAP control rating (0-9) [35]: 0 (no effect); SETVI control rating (0-9) [36]: 5 (definite injury)
2 | C[C@H](NC(=O)c1nnc(N(C)C)o1)c1ccccc1 [Example 6] | 2 (slight effect) | 2 (slight effect) | 1 (trace effect) | 0 (no effect) | 2 (slight effect) | 1 (trace effect) | 0 (no effect) | 2 (slight effect) | 0 (no effect) | 2 (slight effect) | 2 (slight effect) | 0 (no effect) | 2 (slight effect) | 0 (no effect) | 0 (no effect) | 0 (no effect) | 0 (no effect) | 0 (no effect) | 0 (no effect) | 0 (no effect) | PAPRH control rating (0-9) [37]: 0 (no effect); MATIN control rating (0-9) [38]: 0 (no effect); PAPRH control rating (0-9) [39]: 0 (no effect); ZEAMX control rating (0-9) [29]: 0 (no effect); GOSHI control rating (0-9) [30]: 0 (no effect); VERPE control rating (0-9) [31]: 0 (no effect); ABUTH control rating (0-9) [32]: 0 (no effect); HORVW control rating (0-9) [33]: 0 (no effect); MATIN control rating (0-9) [40]: 0 (no effect); VIOAR control rating (0-9) [34]: 2 (slight effect); GALAP control rating (0-9) [35]: 0 (no effect); SETVI control rating (0-9) [36]: 0 (no effect)
